In the NIST ThermoML archive (doi:10.1016/j.fluid.2014.08.005):

Legend:
[1] = for viscosity / mass density: 101.33 kPa, Liquid; for viscosity: Cone and plate viscometry; for mass density: Vibrating tube method; for surface tension liquid-gas: Pendant drop shape
[2] = refractive index (Na D-line) (dimensionless); settings: 101.33 kPa, Liquid, Standard Abbe refractometry

CCCC[N+](C)(C)C.O=S(=O)([N-]S(=O)(=O)C(F)(F)F)C(F)(F)F [butyltrimethylammonium bis(trifluoromethylsulfonyl)imide]
Settings | mass density, [1] [kg/m3] | refractive index, [2] | surface tension liquid-gas, [1] [mN/m] | viscosity, [1] [mPa·s]
283.15 K | 1407.8 | 1.4122 | – | 254.2
288.15 K | 1403.2 | 1.41083 | – | 184.6
293.15 K | 1398.7 | 1.40945 | – | 137.7
293.2 K | – | – | 33.4 | –
298.15 K | 1394.2 | 1.40818 | – | 105.2
298.2 K | – | – | 33.2 | –
303.15 K | 1389.8 | 1.40676 | – | 82
303.2 K | – | – | 33 | –
308.15 K | 1385.4 | 1.40538 | – | 65.2
313.1 K | – | – | 32.5 | –
313.15 K | 1381 | 1.40405 | – | 52.7
318.15 K | 1376.6 | 1.40273 | – | 43.2
323.1 K | – | – | 32 | –
323.15 K | 1372.3 | 1.40142 | – | 35.9
328.15 K | 1368 | 1.40006 | – | 30.2
333.1 K | – | – | 31.5 | –
333.15 K | 1363.7 | 1.39877 | – | 25.7
338.15 K | 1359.5 | 1.39747 | – | 22
343.15 K | 1355.2 | 1.39616 | – | 19.1
348.15 K | 1351 | 1.39486 | – | 16.7
353.15 K | 1346.8 | 1.39358 | – | 14.7

CC[S+](C)CC.O=S(=O)([N-]S(=O)(=O)C(F)(F)F)C(F)(F)F [diethylmethylsulfonium bis[(trifluoromethyl)sulfonyl]imide]
Settings | mass density, [1] [kg/m3] | refractive index, [2] | surface tension liquid-gas, [1] [mN/m] | viscosity, [1] [mPa·s]
283.15 K | 1517.3 | 1.42745 | – | 78.3
288.15 K | 1512.2 | 1.42597 | – | 62.1
293.15 K | 1507.2 | 1.42452 | – | 49.9
293.2 K | – | – | 35.7 | –
298.15 K | 1502.3 | 1.42325 | – | 41.1
298.2 K | – | – | 35.5 | –
303.15 K | 1497.3 | 1.42168 | – | 34.1
303.2 K | – | – | 35.3 | –
308.15 K | 1492.4 | 1.42026 | – | 28.7
313.1 K | – | – | 34.8 | –
313.15 K | 1487.6 | 1.41886 | – | 24.4
318.15 K | 1482.8 | 1.41744 | – | 21
323.1 K | – | – | 34.4 | –
323.15 K | 1478 | 1.41606 | – | 18.2
328.15 K | 1473.2 | 1.41468 | – | 15.9
333.1 K | – | – | 33.9 | –
333.15 K | 1468.5 | 1.41331 | – | 14
338.15 K | 1463.8 | 1.41195 | – | 12.5
343.1 K | – | – | 33.4 | –
343.15 K | 1459.1 | 1.41058 | – | 11.1
348.15 K | 1454.5 | 1.40925 | – | 10
353.15 K | 1449.8 | 1.40793 | – | 9

CC[S+](CC)CC.O=S(=O)([N-]S(=O)(=O)C(F)(F)F)C(F)(F)F [triethylsulfonium bis((trifluoromethyl)sulfonyl)imide]
Settings | mass density, [1] [kg/m3] | refractive index, [2] | surface tension liquid-gas, [1] [mN/m] | viscosity, [1] [mPa·s]
283.15 K | 1477 | 1.43056 | – | 64.4
288.15 K | 1472 | 1.42906 | – | 51.1
293.15 K | 1467.1 | 1.42765 | – | 41.1
293.3 K | – | – | 35.5 | –
298.15 K | 1462.1 | 1.42632 | – | 33.9
298.2 K | – | – | 35.2 | –
303.15 K | 1457.3 | 1.42472 | – | 28.2
303.2 K | – | – | 35 | –
308.15 K | 1452.4 | 1.42325 | – | 23.8
313.1 K | – | – | 34.4 | –
313.15 K | 1447.6 | 1.42185 | – | 20.3
318.15 K | 1442.8 | 1.42044 | – | 17.5
323 K | – | – | 34 | –
323.15 K | 1438.1 | 1.41906 | – | 15.2
328.15 K | 1433.4 | 1.41767 | – | 13.4
333.1 K | – | – | 33.4 | –
333.15 K | 1428.7 | 1.41629 | – | 11.8
338.15 K | 1424 | 1.4149 | – | 10.5
343.1 K | – | – | 32.9 | –
343.15 K | 1419.4 | 1.41353 | – | 9.4
348.15 K | 1414.8 | 1.41215 | – | 8.5
353.15 K | 1410.2 | 1.41077 | – | 7.7

CCCC[N+](C)(CCCC)CCCC.O=S(=O)([N-]S(=O)(=O)C(F)(F)F)C(F)(F)F [tributylmethylammonium bis((trifluoromethyl)sulfonyl)imide]
Settings | mass density, [1] [kg/m3] | refractive index, [2] | surface tension liquid-gas, [1] [mN/m] | viscosity, [1] [mPa·s]
283.15 K | 1276 | 1.4308 | – | 2049.8
288.15 K | 1271.7 | 1.42933 | – | 1264
293.15 K | 1267.3 | 1.42787 | – | 819.2
293.3 K | – | – | 30.8 | –
298.15 K | 1262.8 | 1.42643 | – | 538.9
298.2 K | – | – | 30.6 | –
303.15 K | 1258.4 | 1.42491 | – | 369.3
303.2 K | – | – | 30.2 | –
308.15 K | 1254.1 | 1.42338 | – | 260.4
313.15 K | 1249.9 | 1.42194 | – | 189.5
313.2 K | – | – | 29.7 | –
318.15 K | 1245.8 | 1.42047 | – | 139.6
323.15 K | 1241.7 | 1.41902 | – | 105.6
323.2 K | – | – | 29.1 | –
328.15 K | 1237.6 | 1.41758 | – | 81.5
333.15 K | 1233.6 | 1.41613 | – | 64.1
338.15 K | 1229.5 | 1.41468 | – | 51.1
343.15 K | 1225.5 | 1.41324 | – | 41.4
348.15 K | 1221.5 | 1.4118 | – | 34
353.15 K | 1217.5 | 1.4104 | – | 28.3
